US20250170101A1, “MONOACYLGLYCEROL LIPASE INHIBITORS AND USE THEREOF FOR THE TREATMENT AND MANAGEMENT OF PAIN AND RELATED CONDITIONS” (Psy Therapeutics, Inc., priority 2021, published 2025)

target: T1, human recombinant FAAH (Homo sapiens, UniProt O00519); experiment: FAAH counter screen (Cayman FAAH Inhibitor Screening Assay Kit), Example 21; format: biochemical; conditions: Method A: starting concentration of 100 μM
T1 construct: purchased Cayman kit Item No. 10005196; FAAH enzyme 700302
T1 sequence (O00519 1-579): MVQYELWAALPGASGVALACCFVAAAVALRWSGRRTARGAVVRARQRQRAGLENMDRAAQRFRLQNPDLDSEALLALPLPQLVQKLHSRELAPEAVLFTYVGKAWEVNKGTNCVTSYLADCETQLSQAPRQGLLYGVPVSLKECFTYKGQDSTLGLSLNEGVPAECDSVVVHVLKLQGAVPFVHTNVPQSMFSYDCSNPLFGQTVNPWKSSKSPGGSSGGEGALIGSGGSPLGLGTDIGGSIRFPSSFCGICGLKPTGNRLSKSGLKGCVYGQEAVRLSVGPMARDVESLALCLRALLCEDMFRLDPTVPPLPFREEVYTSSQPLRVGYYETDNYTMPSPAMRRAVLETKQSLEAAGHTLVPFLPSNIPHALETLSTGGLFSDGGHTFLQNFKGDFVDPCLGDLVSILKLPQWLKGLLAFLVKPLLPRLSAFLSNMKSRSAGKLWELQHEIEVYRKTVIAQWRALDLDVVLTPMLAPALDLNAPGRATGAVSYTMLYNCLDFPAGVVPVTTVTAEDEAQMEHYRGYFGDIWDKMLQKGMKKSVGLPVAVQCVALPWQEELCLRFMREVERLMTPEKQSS
Experimental: Comparative compound potency at FAAH can be obtained with the following assay.
MAGL inhibitor compounds were also counter-screened for FAAH inhibition potency using the following assay. Assessment of FAAH inhibition was performed using Fatty Acid Amide Hydrolase Inhibitor Screening Assay Kit (Cayman Item No. 10005196) following manufacture's instruction with some modifications. The kit utilizes human recombinant FAAH and the fluorescent substrate, AMC Arachidonoyl amide (AAMCA). 5 μL of assay buffer (125 mM Tris, pH 9.0, 1 mM EDTA, i.e. ethylenediaminetetraacetic acid) was added to a 384-well black plate (Corning, 3573). Test compounds and control inhibitor JZL-195 (Cayman Chemical, 13668) were tested in 10-concentration IC50 mode with 3-fold serial dilution at a starting concentration of 100 μM and 10 μM, respectively. 300 nL or 30 nL of test compounds were delivered into a 384-well black plate (Corning, 3573) using a Labcyte Echo, followed by addition of 15 μL of FAAH enzyme (Cayman, 700302) in assay buffer. After a 5-minute pre-incubation at room temperature, 10 μL of AAMCA was added in assay buffer to start the reaction. Final concentration of FAAH enzyme is not specified and AAMCA substrate was used at the 20 uM. After these dilutions, the final concentration of the test compounds ranged from 100 μM to 5.08 nM or 10 μM down to 0.508 nM. The reaction was allowed to progress for 60 minutes, while the plate was read on an Envision plate reader at an Ex/Em of 350/460 nm with readings every minute. The data was analyzed in Microsoft Excel, using the slope between 30 and 59 minutes. The average of the no-enzyme wells (background) was subtracted from the data. The background-subtracted slope data was converted to % activity using the average of wells with enzyme and DMSO vehicle. IC50 values were calculated using GraphPad software (Sigmoidal dose response, variable slope equation).
Compounds listed in Table D2 were tested in the FAAH Counterscreen of Example 21

Row | SMILES | IC50 [µM]
1 | Cc1ccccc1-n1nc(C2CC3(C2)CN(C(=O)c2cc(O)ccc2F)C3)cc1C [Compound 117] | > 10
2 | Cc1cc(C2CC3(C2)CN(C(=O)c2ccccc2F)C3)n(-c2ccccc2C)n1 [Compound 122, (2-fluorophenyl)(6-(3-methyl-1-(o-tolyl)-1H-pyrazol-5-yl)-2-azaspiro[3.3]heptan-2-yl)methanone] | > 10
3 | COc1ccc(F)c(C(=O)N2CC3(CC(c4cc(C)nn4-c4ccccc4C)C3)C2)c1 [Compound 123, (2-fluoro-5-methoxyphenyl)(6-(3-methyl-1-(o-tolyl)-1H-pyrazol-5-y1)-2-azaspiro[3.3]heptan-2-yl)methanone] | > 10
4 | Cc1cc(C2CC3(C2)CN(C(=O)c2cccc(O)c2)C3)n(-c2ccccc2C)n1 [Compound 125, (3-hydroxyphenyl)(6-(3-methyl-1-(o-tolyl)-1H-pyrazol-5-y1)-2-azaspiro[3.3]heptan-2-yl)methanone] | > 10
5 | Cc1cc(C2CC3(C2)CN(C(=O)c2c(F)ccc(O)c2F)C3)n(-c2ccccc2C)n1 [Compound 127, (2,6-difluoro-3-hydroxyphenyl)(6-(3-methyl-1-(o-tolyl)-1H-pyrazol-5-yl)-2-azaspiro[3.3]heptan-2-yl)methanone] | > 10

target: T2, MAGL enzyme (Homo sapiens, UniProt Q99685); experiment: MAGL reversible inhibition assay (washout), Example 22; format: biochemical; design: % MAGL activity returning after washout: concentration or dose not given beside the values; conditions: pre-washout compound concentration 1 μM
T2 sequence (Q99685 1-303): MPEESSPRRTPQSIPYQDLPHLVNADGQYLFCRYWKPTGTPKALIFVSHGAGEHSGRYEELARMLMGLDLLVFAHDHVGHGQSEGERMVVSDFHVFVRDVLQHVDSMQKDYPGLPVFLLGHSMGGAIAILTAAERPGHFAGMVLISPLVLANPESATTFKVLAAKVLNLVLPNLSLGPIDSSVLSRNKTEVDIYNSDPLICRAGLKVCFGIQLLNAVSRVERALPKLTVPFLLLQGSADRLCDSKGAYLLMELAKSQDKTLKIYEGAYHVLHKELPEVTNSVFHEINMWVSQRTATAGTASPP
Experimental: The reversible mechanism of MAGL inhibition of a test compound of Formula (I) can be determined. Flag-tagged MAGL enzyme will be immobilized on anti-Flag beads. Immobilized enzyme will be incubated+/−inhibitor at a dose that produces complete inhibition. Colorimetric substrate (4-NPA) will be added and the reaction monitored on a plate reader for 30 minutes to verify complete inhibition. Immobilized enzyme will then be washed thoroughly to remove the inhibitor, and fresh substrate will be added. The reaction will be monitored for an additional 30 minutes; returning enzymatic activity will indicate reversibility of inhibition. […]
For some test compounds, % activity returning after washout may be less than 100%/if complete compound unbinding takes longer than 30 minutes.

Row | SMILES | degree to which MAGL enzymatic activity returned following washout of test compounds
6 | Cc1cnn(C2CC3(C2)CN(C(=O)c2cc(O)ccc2F)C3)c1-c1cc(F)ccc1Cl (single isomer, unassigned) [Compound 519, {6-[5-(2-chloro-5-fluorophenyl)-4-methyl-1-pyrazolyl]-2-aza-2-spiro[3.3]heptyl}(2-fluoro-5-hydroxyphenyl)methanone] | 155

same assay, conditions: relative to control (no inhibitor before washout), immediately following 30 minute washout

Row | SMILES | % MAGL activity returning after washout [%]
7 | Cc1cnn(C2CC3(C2)CN(C(=O)c2cc(O)ccc2F)C3)c1-c1cc(F)ccc1Cl (single isomer, unassigned) [Compound 519, {6-[5-(2-chloro-5-fluorophenyl)-4-methyl-1-pyrazolyl]-2-aza-2-spiro[3.3]heptyl}(2-fluoro-5-hydroxyphenyl)methanone] | >50

target: T3, human MAGL (Homo sapiens, UniProt Q99685); experiment: MAGL inhibition potency (IC50) with 4NPA substrate, Example 20, methods of Table C; format: biochemical; conditions: not given
T3 construct: recombinant MAGL enzyme (aa 2-303 RBC, internal preparation)
T3 sequence (Q99685 2-303): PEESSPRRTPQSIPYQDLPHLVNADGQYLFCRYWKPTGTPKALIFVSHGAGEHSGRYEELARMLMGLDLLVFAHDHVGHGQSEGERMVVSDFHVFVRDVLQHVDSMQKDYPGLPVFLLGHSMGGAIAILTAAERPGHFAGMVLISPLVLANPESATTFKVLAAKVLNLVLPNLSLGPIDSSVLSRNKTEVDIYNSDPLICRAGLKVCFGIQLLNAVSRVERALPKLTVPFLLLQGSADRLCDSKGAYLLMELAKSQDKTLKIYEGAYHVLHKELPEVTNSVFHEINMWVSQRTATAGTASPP
Excerpt: Cayman's Monoacylglycerol Lipase Inhibitor Screening Assay provides a method for screening human MAGL inhibitors. MAGL hydrolyzes 4-nitrophenylacetate resulting in a yellow product, 4-nitrophenol, with an absorbance of 405-412 nm. The monoacylglycerol lipase inhibitor screening assay kit from Cayman Chemical was used to measure the MAGL potency for the compounds in Table 4 and Table 5. Cayman's Monoacylglycerol Lipase Inhibitor Screening Assay provides a method for screening human MAGL inhibitors. MAGL hydrolyzes 4-nitrophenylacetate resulting in a yellow product, 4-nitrophenol, with an absorbance of 405-412 nm. MAGL Inhibition was measured by the following assay. Monoacylglycerol Lipase (MAGL) inhibition was measured using recombinant MAGL enzyme (aa 2-303 RBC, internal preparation) and the substrate 4-Nitrophenyl acetate (4NPA) (Sigma-Aldrich, N8130). Hydrolysis of the substrate in the presence of the enzyme was measured by absorbance at 405 nm. 10 μL of assay buffer (10 mM Tris pH 7.5, 1 mM EDTA, 0.9% DMSO) was added to a black 384-well non-binding plate with clear bottom (Greiner, 781906) for each reaction. […] DMSO control wells were included for reference. A 10.8 nM (1.8×) MAGL mix in assay buffer was prepared, with 25 μL added to each reaction well, for a final assay concentration of 6 nM. No enzyme wells received 25 μL of buffer. Plate was incubated at room temperature for 30 minutes. 35 mM solution of 4NPA in methanol was prepared daily. A 4.5×4NPA substrate solution was prepared in assay buffer and 10 μL was added to each reaction well, for a final assay concentration of 0.25 mM. Plate was spun for 1 minute at 1000 rpm before measuring absorbance using a CLARIOstar plate reader (BMG Labtech). A kinetic reading at 405 nm was done every minute for 30 minutes. Data was analyzed using the linear slope of the reaction progress curve and the average of the no-enzyme wells (background) was subtracted from the data. The background-subtracted slope data was converted to % activity using the average of wells with enzyme and DMSO vehicle. IC50s were calculated using GraphPad software (Sigmoidal dose response, variable slope equation). […] Table 6 is a table of potency measurements of MAGL inhibition measured for other compounds using the Potency Assay of Example 20 above, with the following modifications described in Table C. [table]

Row | SMILES | IC50 [µM]
8 | Cc1cc(C2CC3(C2)CN(Cc2cc(O)ccc2F)C3)n(-c2ccccc2C)n1 [Compound 150, 4-fluoro-3-((6-(3-methyl-1-(o-tolyl)-1H-pyrazol-5-yl)-2-azaspiro [3.3]heptan-2-yl)methyl)phenol] | > 10

same assay, conditions: Method 2: MAGL (10 nM) Cayman Chemical Enzyme

Row | SMILES | IC50 [µM]
9 | COc1cc(F)ccc1CN1CC2(CC(c3cc(C)nn3-c3ccccc3C)C2)C1 [Compound 149] | > 10
10 | COC(c1cccn1C)N1CC2(CC(c3cc(C)nn3-c3ccccc3C)C2)C1 (stereo not shown) [Compound 181] | > 10
11 | COC(c1ccn(C)c1)N1CC2(CC(c3cc(C)nn3-c3ccccc3C)C2)C1 (stereo not shown) [Compound 182] | > 10

same assay, conditions: Method 4: MAGL (15 nM) Cayman Chemical Enzyme

Row | SMILES | IC50 [µM]
12 | CCOc1cc(F)ccc1C(=O)N1CC2(CC(C(=O)N(C)c3cccnc3C)C2)C1 [Compound 198] | > 10

same assay, conditions: Method 6: Enzyme Conc 6, Reaction Biology (6 nM)

Row | SMILES | IC50 [µM]
13 | Cc1cnn(C2CC3(C2)CN(C(=O)c2cc(O)ccc2F)C3)c1-c1ccccc1Cl [Compound 404] | > 10
14 | Cc1ccccc1-c1ccnn1C1CC2(C1)CN(C(=O)c1cc(O)ccc1F)C2 [Compound 405] | > 10
15 | Cc1cc(-c2ccccc2C)n(C2CC3(C2)CN(C(=O)c2cc(O)ccc2F)C3)n1 [Compound 406] | > 10
16 | Cc1cn(C2CC3(C2)CN(C(=O)c2cc(O)ccc2F)C3)nc1-c1ccccc1Cl [Compound 416] | > 10
17 | Cc1ccccc1-c1ccn(C2CC3(C2)CN(C(=O)c2cc(O)ccc2F)C3)n1 [Compound 441] | > 10
18 | Cc1ccccc1-c1cc(C)n(C2CC3(C2)CN(C(=O)c2cc(O)ccc2F)C3)n1 [Compound 442] | > 10

same assay, conditions: Method 12: Enzyme Conc 15, Reaction Biology (15 nM)

Row | SMILES | IC50 [µM]
19 | Cc1cnn(C2CC3(C2)CN(C(=O)c2cc(O)ccc2C(F)(F)F)C3)c1-c1ccccc1F [Compound 494] | > 10
20 | Cc1cn(C2CC3(C2)CN(C(=O)c2cc(O)ccc2C(F)(F)F)C3)nc1-c1ccccc1F [Compound 495] | > 10
21 | O=C(c1c(F)cccc1OC1CC1)N1CC2(CC(n3ncc(C(F)(F)F)c3-c3ccccc3F)C2)C1 [Compound 521] | > 10

same assay, conditions: Method 14: Enzyme Conc "0", Source "0"; Reaction Biology prep, 6 nM

Row | SMILES | IC50 [µM]
22 | Cc1cc(C2CC3(C2)CN(C(=O)c2cc4c(cc2F)CCO4)C3)n(-c2ccccc2C)n1 [Compound 368] | > 10
23 | O=C(c1cc(O)ccc1F)N1CC2(CC(C(=O)N3CCOCC3)C2)C1 [Compound 384] | > 10
24 | O=C(c1cc(O)ccc1F)N1CC2(CC(C(=O)N3CCCC3)C2)C1 [Compound 388] | > 10
25 | O=C(c1cc(O)ccc1F)N1CC2(CC(C(=O)N3CCC4(COC4)C3)C2)C1 [Compound 391] | > 10
26 | O=C(NCC1COC1)C1CC2(C1)CN(C(=O)c1cc(O)ccc1F)C2 [Compound 395] | > 10
27 | Cc1cc(C2CC3(C2)CN(C(=O)c2ccc4c(c2)OCC4)C3)n(-c2ccccc2C)n1 [Compound 402] | > 10
28 | Cc1cc(C2CC3(C2)CN(C(=O)c2cccc4c2CCO4)C3)n(-c2ccccc2C)n1 [Compound 403] | > 10
